Test systems include Escherichia coli BW25113; Escherichia coli; Enterobacter cloacae; Escherichia coli UTI89; Klebsiella pneumoniae; Vibrio cholerae; Acinetobacter baumannii; Escherichia coli 078; Escherichia coli K88; Escherichia coli K99; Escherichia coli UB1005; Escherichia coli K-12.
Holding throughout (experiment): ≥ marks a high value that may be exact or a test limit, other limits are often not marked, values filed in µg/mL are converted to µM
The subject of assay [1] is Acinetobacter baumannii ATCC 19606.
Assay [2] deals with Escherichia coli BW25113 ΔsbmA.
Assay [3] concerns Klebsiella pneumoniae ATCC 700603.
The test system of assay [4] is Pseudomonas aeruginosa ATCC 27853.
For assay [5], the system named is Staphylococcus aureus ATCC 25923.
The subject of assay [6] is Escherichia coli ATCC 25922.
Assay [7] deals with Escherichia coli ATCC 35218.
Assay [8] concerns Klebsiella pneumoniae NDM-1.
In assay [9] the test system is Pseudomonas aeruginosa PAO1.
The test system of assay [10] is Bacillus cereus CGMCC 1.932.
Assay [11] has as its system Bacillus subtilis CMCC 63501.
For assay [12], the system named is Enterococcus faecalis ATCC 29212.
In assay [13] the test system is Listeria monocytogenes CGMCC 1.1075.
Assay [14] concerns Salmonella enterica subsp. enterica serovar Pullorum ATCC 7913.
Assay [15] has as its system Salmonella enterica subsp. enterica serovar Typhimurium ATCC 14028.
Assay [16] has as its system Salmonella typhimurium ATCC 7731.
In assay [17] the test system is Staphylococcus aureus ATCC 43300.
Assay [18] relates to Staphylococcus epidermidis ATCC 12228.
Assay [19] has as its system Listeria monocytogenes EGD.
Assay [20] relates to Pseudomonas aeruginosa PA214.
In assay [21] the test system is Acinetobacter baumannii ATCC BAA-1605.
For assay [22], the system named is Acinetobacter baumannii CR17.
Assay [23] relates to Enterococcus faecium ATCC 700221.
In assay [24] the test system is Staphylococcus aureus ATCC 33591.

As usually defined, the MIC is the smallest concentration in the dilution series that meets the test's criterion for growth inhibition.

In brackets after ≈: the same amount, converted by molar mass.

Regarding `CC[C@H](C)[C@H](NC(=O)[C@@H]1CCCN1C(=O)[C@@H]1CCCN1C(=O)[C@H](CCCN=C(N)N)NC(=O)[C@H](Cc1ccccc1)NC(=O)[C@@H](N)CCCN=C(N)N)C(=O)N[C@@H](CCCN=C(N)N)C(=O)N[C@@H](CCCN=C(N)N)C(=O)N1CCC[C@H]1C(=O)N1CCC[C@H]1C(=O)N[C@H](C(=O)N[C@@H](CCCN=C(N)N)C(=O)N1CCC[C@H]1C(=O)N1CCC[C@H]1C(=O)N[C@@H](Cc1ccccc1)C(=O)N[C@@H](Cc1ccc(O)cc1)C(=O)N[C@@H](CCCN=C(N)N)C(=O)O)[C@@H](C)CC` [RFRPPIRRPPIRPPFYR], the MIC is 64 µM (≈ 142 µg/mL) in assay [1]; no less than 64 µM in assay [2]; 8 µM (≈ 17.8 µg/mL) in the assay with Escherichia coli BW25113; 4 µM (≈ 8.89 µg/mL) with Escherichia coli; greater than 64 µM in assay [3]; greater than 64 µM in [4]. In assay [5], this compound displayed an MIC greater than 64 µM.

For `CC[C@H](C)[C@H](NC(=O)[C@@H](NC(=O)[C@@H]1CCCN1C(=O)[C@H](CO)NC(=O)[C@H](CC(C)C)NC(=O)[C@H](CCCCN)NC(=O)[C@H](CCCCN)NC(=O)[C@H](Cc1ccccc1)NC(=O)[C@H](CC(C)C)NC(=O)[C@H](CCCCN)NC(=O)[C@H](CCCCN)NC(=O)[C@H](CC(C)C)NC(=O)[C@H](CCCCN)NC(=O)[C@H](CCCCN)NC(=O)[C@H](CCCN=C(N)N)NC(=O)[C@H](Cc1ccccc1)NC(=O)[C@H](CCCN=C(N)N)NC(=O)[C@H](CCCCN)NC(=O)[C@H](Cc1ccccc1)NC(=O)[C@H](CCCN=C(N)N)NC(=O)CN)C(C)C)C(=O)N1CCC[C@H]1C(=O)N[C@@H](CC(C)C)C(=O)N[C@@H](CC(C)C)C(=O)N[C@@H](Cc1cnc[nH]1)C(=O)N[C@@H](CC(C)C)C(=O)NCC(=O)O` [GRFKRFRKKLKKLFKKLSPVIPLLHLG], the MIC (against Enterobacter cloacae; in assay [6]; in [7]; in the assay on Escherichia coli UTI89; in [3]; in assay [8]) was 4 µM (≈ 13 µg/mL) each time. For the same compound, the MIC was 5.66 µM (≈ 18.4 µg/mL) against Klebsiella pneumoniae, 4 µM (≈ 13 µg/mL) in assay [4], 4 µM (≈ 13 µg/mL) in assay [9] and 2.83 µM (≈ 9.19 µg/mL) against Vibrio cholerae.

`NC(=O)[C@H](Cc1ccccc1)NC(=O)[C@H](CCCN=C(N)N)NC(=O)[C@H](Cc1c[nH]c2ccccc12)NC(=O)[C@H](CCCN=C(N)N)NC(=O)[C@H](Cc1c[nH]c2ccccc12)NC(=O)[C@H](Cc1c[nH]c2ccccc12)NC(=O)[C@H](Cc1c[nH]c2ccccc12)NC(=O)[C@H](CCCN=C(N)N)NC(=O)[C@H](Cc1c[nH]c2ccccc12)NC(=O)[C@@H](N)CCCN=C(N)N` [RWRWWWRWRF]: the MIC against Acinetobacter baumannii was 2 µM (≈ 3.44 µg/mL); in [10], 8 µM (≈ 13.8 µg/mL); in assay [11] it was 2 µM (≈ 3.44 µg/mL); in assay [12], 4 µM (≈ 6.88 µg/mL); in the assay on Escherichia coli 078 it was 4 µM (≈ 6.88 µg/mL); against Escherichia coli K88, 4 µM (≈ 6.88 µg/mL). Besides, the MIC in the assay with Escherichia coli K99 came out at 4 µM (≈ 6.88 µg/mL); against Escherichia coli UB1005, 8 µM (≈ 13.8 µg/mL); in assay [13], 1 µM (≈ 1.72 µg/mL); in assay [4] it was 16 µM (≈ 27.5 µg/mL); in [9], 4 µM (≈ 6.88 µg/mL); in [14], 8 µM (≈ 13.8 µg/mL). Also, the MIC is 8 µM (≈ 13.8 µg/mL) in assay [15]; 4 µM (≈ 6.88 µg/mL) in assay [16]; 2 µM (≈ 3.44 µg/mL) in assay [5]; 2 µM (≈ 3.44 µg/mL) in assay [17]; 2 µM (≈ 3.44 µg/mL) in assay [18].

Consider `CC[C@H](C)[C@H](NC(=O)[C@H](Cc1cnc[nH]1)NC(=O)[C@@H](NC(=O)[C@H](CCCN=C(N)N)NC(=O)[C@H](CCCCN)NC(=O)[C@H](CCCN=C(N)N)NC(=O)[C@H](CCCCN)NC(=O)[C@H](CC(N)=O)NC(=O)[C@H](Cc1ccc(O)cc1)NC(=O)[C@H](CC(N)=O)NC(=O)[C@@H]1CCCN1C(=O)[C@H](CCCN=C(N)N)NC(=O)[C@@H](NC(=O)[C@@H](N)CS)[C@@H](C)O)[C@@H](C)CC)C(=O)NCC(=O)O` [CTRPNYNKRKRIHIG], for which the MIC in assay [19] came out at 5.76 µM (≈ 10.7 µg/mL).

Consider `C[C@H](NC(=O)[C@H](C)NC(=O)[C@H](CCCCN)NC(=O)[C@H](Cc1ccccc1)NC(=O)[C@H](C)NC(=O)[C@H](CCCCN)NC(=O)[C@H](C)NC(=O)[C@H](Cc1c[nH]c2ccccc12)NC(=O)[C@H](C)NC(=O)[C@H](CCCCN)NC(=O)[C@H](C)NC(=O)[C@H](Cc1ccccc1)NC(=O)[C@H](CCCCN)NC(=O)[C@H](CCCCN)NC(=O)[C@H](C)NC(=O)[C@H](C)NC(=O)[C@@H](N)CCCCN)C(N)=O` [KAAKKFAKAWAKAFKAA], for which the MIC against Escherichia coli K-12 is 12.5 µM (≈ 22.9 µg/mL); in [20], no less than 50 µM; in [9] it was 50 µM (≈ 91.8 µg/mL).

On to `CC[C@H](C)[C@H](NC(=O)[C@H](CCCCN)NC(=O)[C@H](CCCCN)NC(=O)[C@H](Cc1ccccc1)NC(=O)[C@H](CC(C)C)NC(=O)[C@H](CCCCN)NC(=O)[C@@H](N)CCCCN)C(=O)N[C@@H](CC(C)C)C(=O)N[C@@H](CCCN=C(N)N)C(=O)N[C@@H](Cc1ccc(O)cc1)C(=O)N[C@@H](CC(C)C)C(N)=O` [KKLFKKILRYL], for which the MIC in assay [1] was 5.86 µM (≈ 8.49 µg/mL); in [21], 2.76 µM (≈ 4 µg/mL); in assay [22] it was no less than 32.7 µM; in assay [23] it was 5.86 µM (≈ 8.49 µg/mL); in assay [6], 5.86 µM (≈ 8.49 µg/mL); in assay [3], 5.86 µM (≈ 8.49 µg/mL). In addition, the results for the MIC in assay [4] and in assay [24] were 11.7 µM (≈ 17 µg/mL) and 23.1 µM (≈ 33.5 µg/mL), respectively.

(Values after DBAASP.)
